“And” between values parts separate entries of the source, which are not always exact repeats. Equal values may be shown once. Bridge positions count the residues as written; N and C are the ends. Square brackets hold non-standard residues; d marks the D form. Peptide text beside a SMILES is read from it. * marks the point of attachment. Tyr(3-tBu) = CC(C)(C)c1cc(C[C@H](N)C(=O)O)ccc1O; Ahx = NCCCCCC(=O)O; GABA = NCCCC(=O)O; βAla = NCCC(=O)O; tBu = CC(C)(C)*

The target in one test is Motilin receptor (Oryctolagus cuniculus, UniProt A5A4K8). Description: Inhibition of the motilin receptor (MTL-R).
Motilin receptor, sequence (A5A4K8 whole entry): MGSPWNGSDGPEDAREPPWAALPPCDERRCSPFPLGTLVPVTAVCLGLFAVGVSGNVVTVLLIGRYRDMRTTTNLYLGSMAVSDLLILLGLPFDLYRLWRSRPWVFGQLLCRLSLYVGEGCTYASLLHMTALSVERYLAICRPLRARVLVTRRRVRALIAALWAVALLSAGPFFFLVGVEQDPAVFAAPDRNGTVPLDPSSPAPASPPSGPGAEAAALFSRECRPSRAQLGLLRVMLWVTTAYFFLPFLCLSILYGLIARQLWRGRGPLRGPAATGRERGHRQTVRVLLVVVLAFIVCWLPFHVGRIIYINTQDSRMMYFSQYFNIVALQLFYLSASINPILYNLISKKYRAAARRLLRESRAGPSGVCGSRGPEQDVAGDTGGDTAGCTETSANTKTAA
For test [1], the species on record is Oryctolagus cuniculus. Description: pA2 (Contractile potency) is the negative logarithm of the molar concentration of antagonist causing a 2-fold shift to the right of the concentration response curve for motilin. It counts as functional, organism-based. To be noted: read-out: pA2 (converted).
For test [2], the species on record is Oryctolagus cuniculus. As to the kind of experiment: Concentration of compound causing 50% inhibition of the smooth muscle contractile activity. It counts as functional, organism-based. To be noted: Muscle tissue.

For `CC(C)(C)c1cc(CC2NC(=O)[C@@H](NC(=O)C(N)Cc3ccccc3)CCCCNC(=O)CCNC2=O)ccc1O` (stereo not given in full), the IC50 (usually the point on the concentration scale where inhibition reaches its midpoint) at Motilin receptor is 2.1 µM. Besides, the Kb in the test filed under Oryctolagus cuniculus [1] was 2.19 µM. Also, in the test filed under Oryctolagus cuniculus [2], the EC50 (commonly the concentration needed to bring the measured effect to its halfway point) was more than 100 µM.

`CC(C)(C)c1cc(C[C@@H]2NC(=O)[C@@H](NC(=O)[C@@H](N)Cc3ccccc3)CCCCNC(=O)CCNC2=O)ccc1O`: the IC50 against Motilin receptor is 0.01 µM. The Kb in the test filed under Oryctolagus cuniculus [1] is 0.0427 µM. The EC50 in the test filed under Oryctolagus cuniculus [2] was more than 100 µM.

As to `CC(C)(C)c1cc(C[C@H]2NC(=O)[C@@H](NC(=O)[C@@H](N)Cc3ccccc3)CCCCNC(=O)CCNC2=O)ccc1O`, 3.1 µM corresponded to half-maximal inhibition against Motilin receptor (IC50). For the same compound, the Kb in the test filed under Oryctolagus cuniculus [1] is 5.37 µM. The compound further displayed a 50% effective concentration (EC50) in the test listed under Oryctolagus cuniculus [2] of more than 100 µM.

Turning to `CCC(C)Oc1ccc(C[C@@H]2NC(=O)[C@@H](NC(=O)[C@@H](N)Cc3ccccc3)CCCCNC(=O)CCNC2=O)cc1` (stereo not given in full), on Motilin receptor, the half-inhibitory concentration (IC50) was 0.48 µM.

For the compound `CC(C)(C)c1cc(C[C@@H]2NC(=O)[C@@H](NC(=O)[C@@H](N)Cc3ccccc3)CCCCNC(=O)CCNC2=O)cc(C(C)(C)C)c1O`, the IC50 on Motilin receptor was determined as 0.46 µM. Moreover, in the test listed under Oryctolagus cuniculus [2], the concentration giving a half-maximal response (EC50) is more than 10 µM.

`CC(C)(C)Oc1ccc(C[C@@H]2NC(=O)[C@@H](NC(=O)[C@@H](N)Cc3ccccc3)CCCCNC(=O)CCNC2=O)cc1` (H-FKY(tBu)[βAla]; lactam 2-C) gave an IC50 on Motilin receptor of 7.5 µM. The Kb in the test listed under Oryctolagus cuniculus [1] was 120 µM. The compound further showed an EC50 in the test listed under Oryctolagus cuniculus [2] of more than 100 µM.

As to `N[C@@H](Cc1ccccc1)C(=O)N[C@H]1CCCCNC(=O)CCNC(=O)[C@H](Cc2ccc(O)cc2)NC1=O` (H-FKY[βAla]; lactam 2-C), the IC50 on Motilin receptor was 25 µM and 42 µM. The Kb in the test filed under Oryctolagus cuniculus [1] is 89.1 µM. In the test filed under Oryctolagus cuniculus [2], this compound gave an EC50 of more than 100 µM.

`CC(C)(C)c1cc(C[C@@H]2NC(=O)[C@@H](NC(=O)[C@@H](N)Cc3ccccc3)CCCCNC(=O)CNC2=O)ccc1O` (H-FK[Tyr(3-tBu)]G; lactam 2-C): the IC50 against Motilin receptor is 0.007 µM and 0.033 µM. For the same compound, the Kb in the test filed under Oryctolagus cuniculus [1] is 0.0468 µM. Also, the concentration for a half-maximal effect (EC50) in the test listed under Oryctolagus cuniculus [2] was more than 100 µM.

Take `CC(C)(C)c1cc(C[C@@H]2NC(=O)[C@@H](NC(=O)[C@@H](N)Cc3ccccc3)CCCCNC(=O)CCCCCNC2=O)ccc1O` (H-FK[Tyr(3-tBu)][Ahx]; lactam 2-C): on Motilin receptor, the 50% inhibitory concentration (IC50) is 0.017 µM and 0.065 µM. In addition, the Kb in the test filed under Oryctolagus cuniculus [1] was 0.0832 µM. Further, the 50% effective concentration (EC50) in the test filed under Oryctolagus cuniculus [2] is more than 100 µM.

For `CC(C)(C)c1cc(C[C@@H]2NC(=O)[C@@H](NC(=O)[C@@H](N)Cc3ccccc3)CCCCNC(=O)CCCNC2=O)ccc1O` (H-FK[Tyr(3-tBu)][GABA]; lactam 2-C), the IC50 against Motilin receptor was 0.033 µM and 0.059 µM. For the same compound, in the test filed under Oryctolagus cuniculus [1], the Kb was 0.0347 µM. Also, the concentration for a half-maximal effect (EC50) in the test listed under Oryctolagus cuniculus [2] was more than 100 µM.

Turning to `CC(C)(C)c1cc(C[C@@H]2NC(=O)[C@@H](NC(=O)C(N)Cc3ccccc3)CCCCNC(=O)CCNC2=O)ccc1O` (single isomer, unassigned), at Motilin receptor, the IC50 is 1.8 µM. Besides, the Kb in the test filed under Oryctolagus cuniculus [1] is 2 µM. Besides, the EC50 in the test listed under Oryctolagus cuniculus [2] was more than 100 µM.

(Values after ChEMBL document CHEMBL1135706, “Design and synthesis of motilin antagonists derived from the [1-4] fragment of porcine motilin” (J Med Chem, 2002).)
